Measurements taken from the supplement of paper PMC12463676, “Small-molecule dissolution of stress granules by redox modulation benefits ALS models” (Nature Chemical Biology, 2025).

Tests used:
lipoamide = compound: NC(=O)CCCCC1CCSS1 [lipoamide]; assay: thermal stability z-score vs DMSO; higher = more thermally stabilized by treatment; details: HeLa, lipoamide concentration 100 µM
Procedure: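 Cellular thermal proteome profiling in HeLa cells. Cells were treated with 100 µM lipoamide for 1 h, with or without 1 mM arsenate for a further 1 h, then heated to ten temperatures (37-66.3 °C), and soluble protein was quantified by TMT mass spectrometry relative to 0.1% DMSO controls. The thermal stability score (sum of log2 fold changes minus the abundance score) was transformed to a z-score; mean of n = 3 experiments.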

potassium arsenate = compound: O=[As]([O-])(O)O.[K+] [potassium arsenate]; assay: as above; details: HeLa; arsenate concentration 1 mM
Procedure: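 Cellular thermal proteome profiling in HeLa cells treated with 1 mM arsenate for 1 h (DMSO pretreatment), heated to ten temperatures (37-66.3 °C). Soluble protein was quantified by TMT mass spectrometry relative to DMSO controls; the thermal stability score was transformed to a z-score; mean of n = 3 experiments.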

[1] = arsenate co-treatment: 1 mM arsenate 1 h
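Also: each temperature applied for 3 min, abundance score taken as mean log2 fold change at the two lowest temperatures, z-score obtained by mean subtraction and division by SD.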

Sequence of UniProt Q9NRR4 (Q9NRR4 whole entry): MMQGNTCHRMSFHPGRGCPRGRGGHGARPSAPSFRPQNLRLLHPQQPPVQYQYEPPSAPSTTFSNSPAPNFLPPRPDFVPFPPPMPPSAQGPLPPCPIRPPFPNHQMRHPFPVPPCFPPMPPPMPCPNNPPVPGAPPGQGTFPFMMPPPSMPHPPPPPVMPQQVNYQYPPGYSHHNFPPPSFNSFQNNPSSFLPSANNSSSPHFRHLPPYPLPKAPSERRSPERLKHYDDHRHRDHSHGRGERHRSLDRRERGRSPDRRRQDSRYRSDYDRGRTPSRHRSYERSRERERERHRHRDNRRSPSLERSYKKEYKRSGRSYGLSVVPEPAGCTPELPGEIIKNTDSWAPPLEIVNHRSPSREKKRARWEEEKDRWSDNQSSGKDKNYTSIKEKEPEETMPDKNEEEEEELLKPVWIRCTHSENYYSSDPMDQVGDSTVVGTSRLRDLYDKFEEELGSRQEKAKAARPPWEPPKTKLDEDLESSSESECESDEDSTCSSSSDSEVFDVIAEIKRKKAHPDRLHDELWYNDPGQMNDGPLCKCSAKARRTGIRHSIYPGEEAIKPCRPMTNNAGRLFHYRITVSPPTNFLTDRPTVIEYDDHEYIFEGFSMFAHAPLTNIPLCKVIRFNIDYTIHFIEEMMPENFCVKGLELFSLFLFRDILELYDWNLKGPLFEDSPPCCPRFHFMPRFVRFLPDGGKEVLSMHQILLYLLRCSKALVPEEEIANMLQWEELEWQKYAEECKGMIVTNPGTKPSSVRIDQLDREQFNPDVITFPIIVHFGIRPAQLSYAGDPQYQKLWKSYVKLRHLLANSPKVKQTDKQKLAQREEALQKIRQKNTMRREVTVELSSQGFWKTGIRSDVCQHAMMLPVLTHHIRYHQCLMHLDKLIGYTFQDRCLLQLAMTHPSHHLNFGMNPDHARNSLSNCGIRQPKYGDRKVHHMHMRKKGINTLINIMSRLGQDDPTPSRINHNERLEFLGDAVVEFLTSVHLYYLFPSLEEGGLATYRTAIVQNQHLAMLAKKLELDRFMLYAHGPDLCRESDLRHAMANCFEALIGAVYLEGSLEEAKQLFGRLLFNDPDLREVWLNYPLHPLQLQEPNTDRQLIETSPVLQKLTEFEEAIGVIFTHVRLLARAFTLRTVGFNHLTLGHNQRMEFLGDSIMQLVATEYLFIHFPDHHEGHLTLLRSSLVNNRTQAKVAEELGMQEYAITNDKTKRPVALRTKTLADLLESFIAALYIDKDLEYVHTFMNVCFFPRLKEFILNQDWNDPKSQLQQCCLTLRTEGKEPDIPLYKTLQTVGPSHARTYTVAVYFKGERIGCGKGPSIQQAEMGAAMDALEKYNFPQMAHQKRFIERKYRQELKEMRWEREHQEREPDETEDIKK
Sequence of UniProt Q9H553 (Q9H553 whole entry): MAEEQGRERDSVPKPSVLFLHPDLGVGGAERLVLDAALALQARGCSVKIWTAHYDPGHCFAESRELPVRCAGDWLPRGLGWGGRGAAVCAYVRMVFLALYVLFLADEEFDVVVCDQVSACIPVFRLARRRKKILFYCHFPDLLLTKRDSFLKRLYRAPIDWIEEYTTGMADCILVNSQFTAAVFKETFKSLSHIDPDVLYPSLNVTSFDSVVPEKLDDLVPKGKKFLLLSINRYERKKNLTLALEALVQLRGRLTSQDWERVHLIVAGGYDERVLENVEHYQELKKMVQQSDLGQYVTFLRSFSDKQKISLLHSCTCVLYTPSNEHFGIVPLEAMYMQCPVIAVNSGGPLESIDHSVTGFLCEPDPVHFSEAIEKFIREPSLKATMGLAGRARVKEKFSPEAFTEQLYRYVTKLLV
Sequence of UniProt O43379 (O43379 whole entry): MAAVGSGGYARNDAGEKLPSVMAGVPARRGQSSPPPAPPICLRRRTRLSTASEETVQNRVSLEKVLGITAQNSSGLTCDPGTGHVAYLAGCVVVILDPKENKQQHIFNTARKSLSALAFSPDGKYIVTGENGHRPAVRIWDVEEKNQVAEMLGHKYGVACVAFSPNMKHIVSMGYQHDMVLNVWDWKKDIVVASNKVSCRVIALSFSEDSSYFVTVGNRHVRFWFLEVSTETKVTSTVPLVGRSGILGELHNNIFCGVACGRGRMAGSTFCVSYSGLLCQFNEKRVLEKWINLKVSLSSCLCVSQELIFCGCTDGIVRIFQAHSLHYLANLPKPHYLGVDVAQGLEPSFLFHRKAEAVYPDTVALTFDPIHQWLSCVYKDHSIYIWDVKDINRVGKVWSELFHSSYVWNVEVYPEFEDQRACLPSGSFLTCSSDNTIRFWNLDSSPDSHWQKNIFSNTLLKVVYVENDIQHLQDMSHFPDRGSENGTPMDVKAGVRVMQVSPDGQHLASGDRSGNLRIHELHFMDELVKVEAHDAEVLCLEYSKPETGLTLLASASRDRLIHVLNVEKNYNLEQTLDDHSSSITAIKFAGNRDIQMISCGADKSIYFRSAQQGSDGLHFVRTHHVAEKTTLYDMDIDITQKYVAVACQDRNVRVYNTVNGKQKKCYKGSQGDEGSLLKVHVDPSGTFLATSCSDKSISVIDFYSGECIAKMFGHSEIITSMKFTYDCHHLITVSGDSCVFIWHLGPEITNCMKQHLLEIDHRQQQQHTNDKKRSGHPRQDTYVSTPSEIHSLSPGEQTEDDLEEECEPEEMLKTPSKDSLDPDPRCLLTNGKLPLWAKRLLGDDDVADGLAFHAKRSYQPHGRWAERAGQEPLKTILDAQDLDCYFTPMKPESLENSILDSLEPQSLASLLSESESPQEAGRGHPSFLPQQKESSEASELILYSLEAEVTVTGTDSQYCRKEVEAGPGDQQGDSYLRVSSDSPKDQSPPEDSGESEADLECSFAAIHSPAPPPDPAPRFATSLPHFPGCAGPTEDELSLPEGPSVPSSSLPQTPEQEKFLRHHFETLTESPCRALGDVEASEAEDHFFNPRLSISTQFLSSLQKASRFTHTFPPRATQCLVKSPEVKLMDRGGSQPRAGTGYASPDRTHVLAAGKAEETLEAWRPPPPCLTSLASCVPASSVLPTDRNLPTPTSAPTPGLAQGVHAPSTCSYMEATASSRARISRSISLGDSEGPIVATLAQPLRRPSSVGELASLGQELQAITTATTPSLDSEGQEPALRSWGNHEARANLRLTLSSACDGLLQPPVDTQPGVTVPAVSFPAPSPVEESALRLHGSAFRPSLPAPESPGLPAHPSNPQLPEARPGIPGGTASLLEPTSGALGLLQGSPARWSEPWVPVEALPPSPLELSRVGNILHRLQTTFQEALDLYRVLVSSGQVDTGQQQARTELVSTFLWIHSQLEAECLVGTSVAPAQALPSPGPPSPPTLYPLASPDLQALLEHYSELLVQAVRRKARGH
Sequence of UniProt Q96P47 (Q96P47 whole entry): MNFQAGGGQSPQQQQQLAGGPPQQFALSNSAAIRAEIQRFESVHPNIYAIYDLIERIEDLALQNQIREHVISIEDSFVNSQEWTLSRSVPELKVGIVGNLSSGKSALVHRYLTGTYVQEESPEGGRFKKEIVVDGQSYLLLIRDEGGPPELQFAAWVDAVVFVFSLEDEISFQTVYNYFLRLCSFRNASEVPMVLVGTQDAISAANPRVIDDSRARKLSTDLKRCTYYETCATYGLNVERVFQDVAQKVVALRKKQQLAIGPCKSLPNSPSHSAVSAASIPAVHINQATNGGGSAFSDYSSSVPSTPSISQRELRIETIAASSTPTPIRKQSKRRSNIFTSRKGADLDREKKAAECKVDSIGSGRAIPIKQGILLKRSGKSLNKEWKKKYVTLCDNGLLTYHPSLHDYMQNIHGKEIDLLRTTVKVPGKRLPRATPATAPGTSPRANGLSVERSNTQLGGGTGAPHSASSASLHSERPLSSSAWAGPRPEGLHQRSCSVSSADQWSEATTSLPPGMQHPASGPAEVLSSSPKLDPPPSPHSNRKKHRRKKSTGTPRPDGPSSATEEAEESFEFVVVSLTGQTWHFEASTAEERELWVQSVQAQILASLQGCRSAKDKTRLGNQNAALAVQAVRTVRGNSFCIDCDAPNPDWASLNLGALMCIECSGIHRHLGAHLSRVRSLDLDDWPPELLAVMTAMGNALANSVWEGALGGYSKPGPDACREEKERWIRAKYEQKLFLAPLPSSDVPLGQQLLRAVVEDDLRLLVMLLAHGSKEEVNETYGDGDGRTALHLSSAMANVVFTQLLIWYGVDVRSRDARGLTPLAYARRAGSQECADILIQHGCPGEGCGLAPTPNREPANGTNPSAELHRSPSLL
Sequence of UniProt Q9BRT3 (Q9BRT3 whole entry): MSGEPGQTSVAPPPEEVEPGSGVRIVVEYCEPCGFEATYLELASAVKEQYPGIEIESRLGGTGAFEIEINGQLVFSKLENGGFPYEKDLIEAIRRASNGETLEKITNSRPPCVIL
Sequence of UniProt Q9H477 (Q9H477 whole entry): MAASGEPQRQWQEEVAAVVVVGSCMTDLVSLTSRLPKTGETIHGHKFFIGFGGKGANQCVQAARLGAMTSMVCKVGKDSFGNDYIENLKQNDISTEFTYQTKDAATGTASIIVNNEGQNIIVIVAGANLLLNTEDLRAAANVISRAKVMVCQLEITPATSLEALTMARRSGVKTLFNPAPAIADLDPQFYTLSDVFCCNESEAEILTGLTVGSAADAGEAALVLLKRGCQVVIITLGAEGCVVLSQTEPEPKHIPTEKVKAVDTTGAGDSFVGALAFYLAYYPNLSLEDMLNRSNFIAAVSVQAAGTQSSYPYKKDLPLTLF
Sequence of UniProt Q96EK6 (Q96EK6 whole entry): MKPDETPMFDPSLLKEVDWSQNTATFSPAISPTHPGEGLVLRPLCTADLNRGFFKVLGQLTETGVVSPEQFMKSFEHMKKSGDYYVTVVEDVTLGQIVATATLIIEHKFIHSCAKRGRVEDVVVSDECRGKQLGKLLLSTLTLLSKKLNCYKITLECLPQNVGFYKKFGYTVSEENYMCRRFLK
Sequence of UniProt P20338 (P20338 whole entry): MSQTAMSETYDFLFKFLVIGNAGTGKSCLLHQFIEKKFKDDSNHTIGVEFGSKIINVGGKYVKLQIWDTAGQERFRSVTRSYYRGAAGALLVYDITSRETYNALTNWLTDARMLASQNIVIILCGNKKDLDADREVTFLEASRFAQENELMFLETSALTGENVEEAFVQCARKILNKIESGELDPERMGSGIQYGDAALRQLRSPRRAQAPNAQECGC

| Target | thermal stability z-score (lipoamide; [1]) | thermal stability z-score (lipoamide; arsenate co-treatment: none) | thermal stability z-score (potassium arsenate) |
| --- | --- | --- | --- |
| TUBGCP5 (UniProt Q96RT8) | -0.335 | -0.139 | -0.119 |
| RPS3 (UniProt P23396) | 0.354 | 0.207 | -0.627 |
| EXOC7 (UniProt Q9UPT5) | -0.927 | -0.435 | -0.227 |
| KIF2C (UniProt Q99661) | -0.47 | -0.0787 | 0.56 |
| CBLB (UniProt Q13191) | 0.338 | -0.251 | -0.0258 |
| DDA1 (UniProt Q9BW61) | 0.456 | -0.211 | 0.665 |
| RBKS (UniProt Q9H477) | -0.0153 | -0.521 | 0.335 |
| TRMT61B (UniProt Q9BVS5) | -1.22 | -0.842 | -0.271 |
| ZNF428 (UniProt Q96B54) | 1.64 | 2.65 | 1.85 |
| RBBP7 (UniProt Q16576) | 0.794 | 0.539 | -0.595 |
| CDK1 (UniProt P06493) | 0.163 | -0.0348 | 0.246 |
| WDR62 (UniProt O43379) | -0.259 | -0.153 | -0.0901 |
| DROSHA (UniProt Q9NRR4) | -0.124 | -0.127 | 0.141 |
| EVI5 (UniProt O60447) | -0.272 | 0.322 | 0.704 |
| TP53RK (UniProt Q96S44) | 0.0309 | -0.743 | -0.367 |
| RBBP6 (UniProt Q7Z6E9) | 0.06 | -0.0854 | -0.263 |
| DDX19A (UniProt Q9NUU7) | 0.865 | 1.2 | 0.954 |
| PLEKHF1 (UniProt Q96S99) | -0.218 | -0.0271 | -0.0692 |
| CERS2 (UniProt Q96G23) | -0.901 | -1.12 | -0.575 |
| MED12 (UniProt Q93074) | -0.255 | -0.248 | 0.0377 |
| MICALL2 (UniProt Q8IY33) | -0.157 | 0.00775 | -0.0438 |
| AGAP3 (UniProt Q96P47) | 0.0887 | -0.377 | -0.25 |
| TDRD3 (UniProt Q9H7E2) | -0.448 | 0.0394 | -0.796 |
| IMP3 (UniProt Q9NV31) | -0.323 | -0.228 | 0.389 |

| Target | thermal stability z-score (lipoamide; [1]) | thermal stability z-score (lipoamide; arsenate co-treatment: none) | thermal stability z-score (potassium arsenate) |
| --- | --- | --- | --- |
| FARP1 (UniProt Q9Y4F1) | -0.118 | -1.38 | -2.23 |
| RNF216 (UniProt Q9NWF9) | -0.0849 | 0.015 | 0.679 |
| RAB4A (UniProt P20338) | 0.387 | 0.311 | 0.408 |
| NDUFA9 (UniProt Q16795) | 0.188 | 0.112 | 0.475 |
| UBE3C (UniProt Q15386) | -0.19 | 0.18 | 0.79 |
| TMEM63B (UniProt Q5T3F8) | -0.865 | -0.374 | -0.606 |
| EXT2 (UniProt Q93063) | -1.16 | -0.953 | -0.573 |
| HSP90AA1 (UniProt P07900) | 0.0337 | 0.301 | 0.428 |
| SUCLG2 (UniProt Q96I99) | 0.0359 | 0.172 | 0.106 |
| ECEL1 (UniProt O95672) | -1.25 | -0.891 | 1.11 |
| MARCKS (UniProt P29966) | 0.62 | 0.121 | 0.943 |
| DRG1 (UniProt Q9Y295) | -0.143 | -0.213 | 0.121 |
| GNPNAT1 (UniProt Q96EK6) | 0.365 | -0.348 | -1.03 |
| IGSF8 (UniProt Q969P0) | 0.26 | 0.326 | 0.893 |
| PATL1 (UniProt Q86TB9) | -0.613 | -0.623 | -0.0875 |
| ITPR2 (UniProt Q14571) | -0.269 | -0.265 | -0.238 |
| DPF2 (UniProt Q92785) | 2.86 | 2.98 | -5.05 |
| GSTM3 (UniProt P21266) | 0.731 | 0.402 | 1.48 |
| RPS21 (UniProt P63220) | 0.253 | 0.512 | -0.196 |
| PAK4 (UniProt O96013) | -0.224 | -0.347 | -0.347 |
| ALG2 (UniProt Q9H553) | -1.02 | -1.3 | -0.992 |
| PHLDB1 (UniProt Q86UU1) | -0.559 | 0.362 | 0.2 |
| ANAPC7 (UniProt Q9UJX3) | 0.306 | 0.186 | 0.251 |
| THOP1 (UniProt P52888) | -0.0659 | -0.212 | -0.915 |

| Target | thermal stability z-score (lipoamide; [1]) | thermal stability z-score (lipoamide; arsenate co-treatment: none) | thermal stability z-score (potassium arsenate) |
| --- | --- | --- | --- |
| CAPZA2 (UniProt P47755) | -0.00372 | 0.906 | 0.697 |
| TOR1AIP1 (UniProt Q5JTV8) | -2.27 | -2.09 | -0.146 |
| TRMT1L (UniProt Q7Z2T5) | 0.385 | 0.0926 | -1.26 |
| FAM120C (UniProt Q9NX05) | -0.0604 | -0.0122 | -0.296 |
| MIEN1 (UniProt Q9BRT3) | 0.165 | -0.595 | 0.969 |
| IGF2BP1 (UniProt Q9NZI8) | -0.0135 | 0.286 | -0.379 |
| RAP1GAP2 (UniProt Q684P5) | 1.12 | 0.923 | 0.124 |
| SLC25A24 (UniProt Q6NUK1) | -0.0911 | -0.127 | 0.205 |
| SRP9 (UniProt P49458) | 0.432 | 0.761 | -0.335 |
| AMPD2 (UniProt Q01433) | 0.297 | -0.25 | 0.172 |
| MKI67 (UniProt P46013) | 1.7 | 1.37 | 0.155 |
| PM20D2 (UniProt Q8IYS1) | 0.623 | 1.29 | 1.81 |
| RPS27A (UniProt P62979) | 0.106 | -0.431 | -1.18 |
| NUP210 (UniProt Q8TEM1) | -0.954 | -1.03 | 0.685 |
| ARHGEF12 (UniProt Q9NZN5) | -0.125 | -0.261 | 0.192 |
| ARAP1 (UniProt Q96P48) | -0.133 | -0.0899 | -0.345 |
| AAGAB (UniProt Q6PD74) | 0.334 | 0.843 | 2.05 |
| PGLS (UniProt O95336) | 0.924 | -0.683 | -1.3 |
| NSDHL (UniProt Q15738) | 0.566 | 0.0586 | -0.401 |
| CAPNS1 (UniProt P04632) | 0.532 | 0.582 | 0.0106 |
| SMAD2 (UniProt Q15796) | -0.492 | 0.118 | -1.26 |
| MAPK3 (UniProt P27361) | -0.115 | -0.114 | -0.214 |
| FAM83H (UniProt Q6ZRV2) | -0.0915 | 0.0556 | 0.0326 |
